Converted amounts (≈) assume the structure as drawn.
What was measured:
Experiment in all cases: ≥ marks a high value that may be exact or a test limit, other limits are often not marked, values filed in µg/mL are converted to µM
[1] = system: Corynebacterium glutamicum ATCC 13032
[2] = system: Escherichia coli DH5alpha
[3] = system: Escherichia coli ATCC 25922
[4] = system: Pseudomonas aeruginosa ATCC 27853
[5] = system: Staphylococcus aureus ATCC BAA-44
[6] = system: Enterococcus faecalis ATCC 29212
[7] = system: Staphylococcus aureus ATCC 25923
Escherichia coli ML-35p = system: Escherichia coli ML-35p
[8] = system: Staphylococcus aureus Newman
[9] = system: Cronobacter sakazakii DSM 4485
[10] = system: Staphylococcus aureus RF122
[11] = system: Staphylococcus aureus RN4220
[12] = system: Klebsiella pneumoniae NCIMB 13218
[13] = system: Staphylococcus aureus NCTC 8325-4
[14] = system: Escherichia coli NCIMB 11843
[15] = system: Cronobacter muytjensii ATCC 51329
[16] = system: Cronobacter sakazakii ATCC BAA-894
[17] = system: Cronobacter sakazakii DPC 6440
[18] = system: Salmonella enterica subsp. enterica serovar Typhimurium LT2
[19] = system: Pseudomonas fluorescens NCIMB 9046
[20] = system: Staphylococcus aureus SA113
[21] = system: Salmonella enterica subsp. enterica serovar Pullorum C79-13
[22] = system: Staphylococcus aureus ATCC 29213
[23] = system: Salmonella enterica subsp. enterica serovar Typhimurium C77-31
[24] = system: Staphylococcus epidermidis ATCC 12228
Escherichia coli UB1005 = system: Escherichia coli UB1005
[25] = system: Salmonella enterica subsp. enterica serovar Typhimurium ATCC 14028
[26] = system: Salmonella enterica subsp. enterica serovar Typhi CMCC 50071
Escherichia coli BL21 = system: Escherichia coli BL21
[27] = system: Staphylococcus epidermidis
Escherichia coli MG1655 = system: Escherichia coli MG1655
[28] = system: Bacillus subtilis ATCC 6633
[29] = system: Staphylococcus aureus ATCC 9144
[30] = system: Escherichia coli ATCC 10536

MIC [8] | MIC [9] | MIC [10] | MIC [11] | MIC [12] | MIC [13] | MIC [14] | MIC [15] | MIC [16] | MIC [17] | MIC [18] | MIC [19] | MIC [20] | SMILES | also measured
 |  |  |  |  |  |  |  |  |  |  |  |  | CC[C@H](C)[C@H](NC(=O)[C@H](Cc1c[nH]c2ccccc12)NC(=O)[C@@H](N)CCCCN)C(=O)N[C@H]1CSSC[C@@H](C(=O)N[C@@H](CCCN=C(N)N)C(=O)N[C@@H](Cc2c[nH]c3ccccc23)C(=O)N[C@@H](CCCN=C(N)N)C(=O)O)NC(=O)[C@H](Cc2ccc(O)cc2)NC(=O)[C@H]([C@@H](C)O)NC(=O)[C@H]([C@@H](C)CC)NC(=O)[C@H](Cc2c[nH]c3ccccc23)NC(=O)[C@H](CCCN=C(N)N)NC(=O)CNC(=O)[C@H](CCCN=C(N)N)NC(=O)[C@H](Cc2ccc(O)cc2)NC(=O)[C@H](Cc2c[nH]c3ccccc23)NC(=O)[C@H](CC(C)C)NC(=O)[C@H](CCCN=C(N)N)NC(=O)[C@H](CCCN=C(N)N)NC1=O [KWICRRLWYRGRWITYCRWR] | MIC [1]: 0.78 µM (≈ 2.23 µg/mL); MIC [2]: 12.5 µM (≈ 35.7 µg/mL)
 |  |  |  |  |  |  |  |  |  |  |  |  | CC[C@H](C)[C@H](NC(=O)CN)C(=O)N[C@@H](CCCCN)C(=O)N[C@@H](CC(=O)O)C(=O)N[C@@H](CC(C)C)C(=O)N[C@@H](CC(C)C)C(=O)N[C@@H](CCCCN)C(=O)NCC(=O)N[C@@H](C)C(=O)N[C@@H](C)C(=O)N[C@@H](CCCCN)C(=O)N[C@@H](C)C(=O)N[C@@H](CC(C)C)C(=O)N[C@H](C(=O)N[C@@H](CCCCN)C(=O)N[C@H](C(=O)N[C@H](C(=O)N[C@@H](CC(C)C)C(=O)N[C@@H](CCCCN)C(N)=O)C(C)C)[C@@H](C)O)C(C)C [GIKDLLKGAAKALVKTVLK] | MIC [3]: 1.7 µM (≈ 3.34 µg/mL); MIC [4]: 25 µM (≈ 49.1 µg/mL); MIC [5]: 6.3 µM (≈ 12.4 µg/mL); MIC [6]: 50 µM (≈ 98.3 µg/mL); MIC [7]: 4.7 µM (≈ 9.24 µg/mL); MIC (Escherichia coli ML-35p): 12.5 µM (≈ 24.6 µg/mL)
≥ 1250 µM | ≥ 2500 µM | ≥ 1250 µM | ≥ 1250 µM | ≥ 1250 µM | ≥ 625 µM | ≥ 1250 µM | ≥ 2500 µM | ≥ 2500 µM | ≥ 625 µM | ≥ 2500 µM | ≥ 1250 µM | ≥ 625 µM | CC(C)C[C@H](NC(=O)[C@H](CC(N)=O)NC(=O)[C@H](CCC(=O)O)NC(=O)[C@H](CC(N)=O)NC(=O)[C@H](CC(C)C)NC(=O)[C@@H](N)C(C)C)C(=O)N[C@@H](C)C(=O)N[C@@H](CCCN=C(N)N)C(=O)O [VLNENLAR] | 
 |  |  |  |  |  |  |  |  |  |  |  |  | NC(=O)CC[C@H](NC(=O)[C@H](Cc1c[nH]c2ccccc12)NC(=O)[C@H](CCCN=C(N)N)NC(=O)[C@H](CCCN=C(N)N)NC(=O)[C@@H]1CCCN1C(=O)[C@@H](N)Cc1ccccc1)C(=O)N[C@@H](Cc1c[nH]c2ccccc12)C(=O)N[C@@H](CCCN=C(N)N)C(=O)N[C@@H](CCCN=C(N)N)C(=O)N1CCC[C@H]1C(=O)N[C@@H](Cc1ccccc1)C(N)=O [FPRRWQWRRPF] | MIC [21]: 16 µM (≈ 26.1 µg/mL); MIC [22]: 32 µM (≈ 52.2 µg/mL); MIC [23]: ≥ 64 µM; MIC [7]: 32 µM (≈ 52.2 µg/mL); MIC [24]: 64 µM (≈ 104 µg/mL); MIC (Escherichia coli UB1005): 8 µM (≈ 13 µg/mL); MIC [25]: 32 µM (≈ 52.2 µg/mL); MIC [26]: ≥ 128 µM
≥ 1250 µM | ≥ 1250 µM | ≥ 1250 µM | ≥ 1250 µM | ≥ 2500 µM | ≥ 1250 µM | ≥ 2500 µM | ≥ 1250 µM | ≥ 2500 µM | ≥ 1250 µM | ≥ 2500 µM | ≥ 625 µM | ≥ 1250 µM | CC(C)C[C@H](NC(=O)[C@H](CC(C)C)NC(=O)[C@H](CC(N)=O)NC(=O)[C@H](CCC(=O)O)NC(=O)[C@H](CC(N)=O)NC(=O)[C@H](CC(C)C)NC(=O)[C@@H](N)C(C)C)C(=O)N[C@@H](CCCCN)C(=O)O [VLNENLLK] | 
 |  |  |  |  |  |  |  |  |  |  |  |  | CC[C@H](C)[C@H](NC(=O)[C@H](CCCCN)NC(=O)[C@H](CCCN=C(N)N)NC(=O)[C@H](CCCCN)NC(=O)[C@H](CCCCN)NC(=O)[C@H](CCCCN)NC(=O)[C@H](Cc1c[nH]c2ccccc12)NC(=O)[C@H](CCCCN)NC(=O)[C@H](CC(C)C)NC(=O)[C@H](CO)NC(=O)[C@H](Cc1ccccc1)NC(=O)[C@H](CCCN=C(N)N)NC(=O)[C@H](CC(=O)O)NC(=O)[C@H](CCSC)NC(C)=O)C(=O)N[C@@H](CCCN=C(N)N)C(=O)N[C@@H](CCCN=C(N)N)C(=O)N[C@@H](CCCN=C(N)N)C(=O)N[C@@H](CCCN=C(N)N)C(=O)N[C@@H](CCCN=C(N)N)C(=O)N[C@@H](CCCN=C(N)N)C(=O)N[C@@H](CCCN=C(N)N)C(=O)N[C@@H](CCCN=C(N)N)C(=O)N[C@@H](CCCN=C(N)N)C(=O)N[C@@H](CCCN=C(N)N)C(=O)N[C@@H](CCCN=C(N)N)C(N)=O [MDRFSLKWKKKRKIRRRRRRRRRRR] | MIC (Escherichia coli BL21): 4 µM (≈ 14.5 µg/mL); MIC [27]: 3 µM (≈ 10.9 µg/mL); MIC (Escherichia coli MG1655): 7.5 µM (≈ 27.2 µg/mL)
 |  |  |  |  |  |  |  |  |  |  |  |  | CC[C@H](C)[C@H](NC(=O)[C@H](CCCCN)NC(=O)CNC(=O)[C@H](CC(C)C)NC(=O)[C@H](Cc1ccccc1)NC(=O)[C@H](CCC(N)=O)NC(=O)[C@H](Cc1ccccc1)NC(=O)[C@@H](N)C(C)C)C(=O)N[C@H](C(=O)N[C@@H](Cc1cnc[nH]1)C(=O)N[C@@H](Cc1cnc[nH]1)C(=O)N[C@H](C(=O)NCC(=O)N[C@@H](CC(N)=O)C(=O)N[C@@H](Cc1ccccc1)C(=O)N[C@H](C(=O)N[C@@H](Cc1cnc[nH]1)C(=O)NCC(=O)N[C@@H](Cc1ccccc1)C(=O)N[C@@H](CO)C(=O)N[C@@H](C)C(=O)N[C@H](C(=O)N[C@@H](Cc1ccccc1)C(N)=O)C(C)C)C(C)C)C(C)C)[C@@H](C)CC [VFQFLGKIIHHVGNFVHGFSAVF] | MIC (Escherichia coli MG1655): ≥ 64 µM
≥ 1250 µM | ≥ 2500 µM | ≥ 1250 µM | ≥ 1250 µM | ≥ 2500 µM | ≥ 625 µM | ≥ 2500 µM | ≥ 625 µM | ≥ 1250 µM | ≥ 625 µM | ≥ 2500 µM | ≥ 2500 µM | ≥ 1250 µM | CC(C)C[C@H](NC(=O)[C@H](C)NC(=O)[C@@H](N)C(C)C)C(=O)N[C@@H](CC(N)=O)C(=O)N[C@@H](CCC(=O)O)C(=O)N[C@@H](CC(N)=O)C(=O)N[C@@H](CC(C)C)C(=O)N[C@@H](CC(C)C)C(=O)N[C@@H](CCCN=C(N)N)C(=O)O [VALNENLLR] | MIC [4]: 32 µM (≈ 33.3 µg/mL)
 |  |  |  |  |  |  |  |  |  |  |  |  | CC[C@H](C)[C@H](NC(=O)CNC(=O)CN)C(=O)N[C@@H](CC(C)C)C(=O)N[C@H](C(=O)N[C@@H](C)C(=O)N[C@@H](CCCCN)C(=O)N[C@@H](CC(C)C)C(=O)N[C@H](C(=O)N[C@H](C(=O)N[C@H](C(=O)N[C@@H](CC(C)C)C(=O)NCC(=O)N1CCC[C@H]1C(=O)N[C@@H](C)C(=O)N[C@@H](CC(C)C)C(=O)N[C@H](C(=O)N[C@@H](CO)C(=O)N[C@@H](Cc1c[nH]c2ccccc12)C(=O)N[C@H](C(=O)N[C@@H](CCCCN)C(=O)N[C@@H](CCCN=C(N)N)C(=O)N[C@@H](CCCCN)C(=O)N[C@@H](CCCN=C(N)N)C(=O)N[C@@H](CCC(N)=O)C(=O)N[C@@H](CCC(N)=O)C(N)=O)[C@@H](C)CC)[C@@H](C)CC)[C@@H](C)O)[C@@H](C)O)C(C)C)C(C)C [GGILVAKLVTTLGPALISWIKRKRQQ] | MIC [28]: 5.8 µM (≈ 16.5 µg/mL); MIC [2]: 4.8 µM (≈ 13.7 µg/mL); MIC [29]: 5 µM (≈ 14.2 µg/mL); MIC [30]: 4.7 µM (≈ 13.4 µg/mL)

— DBAASP
